Tests used:
[1] = tested on: SKOV3 chemoresistant ovarian cancer cells; experiment: Pyridoclax / ABT-737 association, apoptotic cell death; assay type: cell-based, human
Description: (§1) FIG. 4 represents the effect of the association of Pyridoclax with ABT-737 on chemoresistant ovarian cancer cells IGROV1-R10 (top) and SKOV3 (bottom). Cells were concomitantly (A, E) or sequentially (B) exposed to 25 μM Pyridoclax and 5 μM ABT-737, and cellular effects were assessed either longitudinally (A, B, E) or after 24 h (C, D, F). [A, B, E] real time cellular activity assessed by impedancmetry (xCELLigence technology), after concomitant exposure (A, E) or sequential exposure (B; 24 h Pyridoclax, then ABT-737). [C]: Cellular morphology and DNA content histograms after a 24 h concomitant exposure. [D and F]: PARP and caspase 3 cleavage after a 24 h concomitant exposure.
(§2) Adherent and floating cells were pooled, washed with 1×PBS and centrifuged at 200 g for 5 min before staining by Annexin V, propidium iodide or both, as recommended by the manufacturer (Roche Diagnostic, Indianapolis, USA). Briefly, 100 μl of Annexin V—Flit or propidium iodide or both were added on the cells pellet (10^6 cells) and incubated 15 minutes at room temperature in obscurity. 500 μl of sample buffer was then added on the suspensions that were thereafter analyzed using a Gallios flow cytometer (Beckman Coulter, Roissy, France) and cell cycle distribution was determined using Kaluza acquisition software (Beckman Coulter).
(§3) Cells were rinsed with ice-cold PBS, suspended in a lysis buffer [RIPA:NaCl 150 mM, Tris (pH 8) 50 mM, Triton X100 1%, PMSF 4 mM, EDTA 5 mM, NaF 10 mM, NaPPi 10 mM, Na3OV4 1 mM, aprotinin 0.5 μl/ml and 4.6 ml ultra pure water] and incubated on ice for 30 minutes. Lysates were collected after centrifugation (13200 g, 10 min, 4° C.) and protein concentrations were determined using the Bradford assay (Bio-Rad, Hercules, USA). 20 μg of protein were separated by SDS-PAGE on a 4-12% gradient polyacrylamide gel (Invitrogen, Cergy-Pontoise, France) and transferred to Hybond-PVDF membranes (Amersham, Orsay, France). […]

[2] = tested on: IGROV1-R10 ovarian cancer cells; experiment: Nuclear morphology after DAPI staining; assay type: cell-based; parameters: key to Apoptotic nuclear features: +: a few condensed or fragmented nuclei are observable after DAPI staining; ++: numerous condensed or fragmented nuclei are observable after DAPI staining (20-50%); +++: most of the nuclei are condensed or fragmented
Description: (§4) Exponentially growing cells were transfected by siRNA as described below, and after 48 h, cells were continuously exposed to (Het)aromatic oligosystems (10, 25 or 50 μM) dissolved in DMSO (<0.1% of total volume) for 4 to 24 supplementary hours.
(§5) Cells were seeded in 25 cm^2 flasks the day before to reach 30-50% confluency at the time of transfection. The transfection INTERFERin™ reagent (Polyplus Transfection, Strasbourg. France) was added to siRNA diluted in Opti-MEM® reduced serum medium (Invitrogen, Cergy-Pontoise, France) and complexes formation was allowed to proceed for 15 min at RT before being applied to cells. The final siRNA concentration in the flasks was 20 nM.
After treatment, both detached and adherent cells were pooled after trypsinization, applied to a polylysine-coated glass slide by cytocentrifugation and fixed with a solution of ethanol/chloroform/acetic acid (6:3:1). The preparations were then incubated for 15 min at room temperature with 1 μg/ml DAPI solution (Boehringer Mannheim-Roche, Mannheim, Germany), washed in distillated water, mounted under a coverslip in Mowiol (Calbiochem) and analyzed under a fluorescence microscope (BX51, Olympus, Rungis, France).
Cells were fixed with 2.5% glutaraldehyde in PBS buffer, included in agar, rinsed in Sorensen's buffer, post-fixed in osmium tetroxide 1% in Sorensen's buffer, deshydrated in ethanol and embedded in EPON resin. Ultrathin sections were cut and stained with uranyl acetate and lead citrate and examined using a JEOL1011 transmission electron microscope.

[3] = tested on: IGROV1-R10 chemoresistant ovarian cancer cells; experiment: Pyridoclax / ABT-737 association, apoptotic cell death; assay type: cell-based
Description: as §1, §2, §3

[4] = tested on: IGROV1-R10 ovarian cancer cells; experiment: Annexin V/propidium iodide flow cytometry; assay type: cell-based; conditions: IGROV1-R10, 10 nM siXL1 48 h then 25 μM Pyridoclax 24 h
Description: as §2

[5] = tested on: IGROV1-R10 ovarian cancer cells; experiment: Cellular morphology / cell detachment, molecule alone or with Bcl-xL targeting siRNA; assay type: cell-based
Description: as §4, §5

[6] = tested on: SKOV3 chemoresistant ovarian cancer cells; experiment: Real-time cellular activity by impedancemetry (xCELLigence); assay type: cell-based, human; conditions: SKOV3, 25 μM Pyridoclax + 5 μM ABT-737
Description: as §1
Compound-mediated cytotoxicity was monitored using Real-Time Cell Analyzer multi-plate (RTCA MP) Instrument, xCELLigence System (Roche Applied Science, Mannheim, Germany). This system monitors cellular events in real time measuring electrical impedance across interdigitated micro-electrodes integrated on the bottom of tissue culture E-plates View (Roche). […] Thus, this index reflects changes in cell viability as described by Ke et al. (2011, Methods Mol Biol 740, 33-43). […] Impedance was continuously measured until the end of the treatment. Standard deviations of well replicates were analyzed with the RTCA Software.

[7] = IGROV1-R10, Pyridoclax associated to siXL1

In the case of `Cc1cc(-c2ncc(-c3cccnc3)cc2/C=C/c2ccccc2)cnc1-c1cccnc1` [Pyridoclax, 5,6′-di(pyridin-3-yl)-5′-methyl-3-((E)-styryl)-2,3′-bipyridine], the “cell death, combination with ABT-737” value ([1]; SKOV3, 25 μM Pyridoclax + 5 μM ABT-737) is reported as “massive apoptotic cell death”, the “cell death as single agent” value ([1]; SKOV3, single agent) is reported as “neither ABT-737 nor Pyridoclax induced cell death as single agents” and the “nuclear morphology (DAPI staining and electron microscopy)” value [2, 7] is reported as “nuclear condensations and fragmentations”. For the same compound, the Apoptotic nuclear features ([2]; Molecule + Bcl-xL targeting siRNA, DAPI staining) was “+++”, the “cell death, combination with ABT-737” value ([3]; IGROV1-R10, 25 μM Pyridoclax + 5 μM ABT-737) was “massive apoptotic cell death” and the “cell death as single agent” value ([3]; IGROV1-R10, single agent) was “neither ABT-737 nor Pyridoclax induced cell death as single agents”. For the same compound, the “fraction of annexin V positive cells” value [4] was 60%, the “effects in response to 10 μM” value ([5]; IGROV1-R10, Pyridoclax 10 μM associated to siXL1 (data not shown)) was “also observed in a lower extend” and the “Cell detachment” value [5, 7] was “strong cell detachment”. The “concentration at which effects are optimal” value [5, 7] was 25 µM, the “cell death, agent on its own” value ([5]; IGROV1-R10, single agent) was “neither Pyridoclax nor the Bcl-xL targeting siRNA (siXL1) induced massive cell death on their own” and the “cellular activity (impedancemetry)” value [6] was “drastically decreased”.

Source: patent publication US10307410B2, “Mcl-1 modulating compounds for cancer treatment” (CENTRE REGIONAL DE LUTTE CONTRE LE CANCER FRANCOIS BACLESSE, priority 2014, dated 2019)
